Results on 25 compounds are retold here after patent US20230365592A1 (Agios Pharmaceuticals, Inc., priority 2022, published 2023).

In the assay the target is T1, human PAH with the R408W mutation (Homo sapiens, UniProt P00439, R408W).
T1 construct: expressed in transfected cells
T1 sequence (P00439 1-452 R408W): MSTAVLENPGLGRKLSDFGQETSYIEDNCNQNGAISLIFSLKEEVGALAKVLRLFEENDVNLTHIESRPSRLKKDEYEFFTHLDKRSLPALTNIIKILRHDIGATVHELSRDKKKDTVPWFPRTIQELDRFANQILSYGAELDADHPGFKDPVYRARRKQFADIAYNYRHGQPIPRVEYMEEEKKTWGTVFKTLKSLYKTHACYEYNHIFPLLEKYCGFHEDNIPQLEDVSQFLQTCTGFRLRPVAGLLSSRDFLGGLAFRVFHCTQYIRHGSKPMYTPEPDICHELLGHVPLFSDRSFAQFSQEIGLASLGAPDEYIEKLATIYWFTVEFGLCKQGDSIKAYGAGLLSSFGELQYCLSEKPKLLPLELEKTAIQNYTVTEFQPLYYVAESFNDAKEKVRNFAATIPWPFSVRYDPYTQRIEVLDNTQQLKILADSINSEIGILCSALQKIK
Briefly: Cell Based Phenylalanine Flux Assay.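 Further: after compound treatment, cells received sepiapterin plus isotope-labelled Phenylalanine for 4 hours, then labelled Tyrosine in the medium was quantified, 10-point 2-fold dilution series run in duplicate.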 Conditions: A375 cells expressing human R408W PAH; 24 hrs compound incubation; 13C-Tyrosine by LC-MS; average where tested multiple times; read-out: AC50.
With `Cn1ccc(-c2nnc(C(=O)N3CCc4[nH]cnc4[C@@H]3c3cc4ccc(C(F)(F)F)cn4n3)o2)n1` [Example 1129, (R)-(5-(1-methyl-1H-pyrazol-3-yl)-1,3,4-oxadiazol-2-yl)(4-(6-(trifluoromethyl)pyrazolo[1,5-a]pyridin-2-yl)-6,7-dihydro-1H-imidazo[4,5-c]pyridin-5(4H)-yl)methanone], the AC50 is 1 to 5 µM. For the compound `O=C(c1nnc(C2CC2)o1)N1CCc2[nH]cnc2[C@H]1c1cc2cc(F)ccn2n1` [Example 1130, (S)-(5-cyclopropyl-1,3,4-oxadiazol-2-yl)(4-(5-fluoropyrazolo[1,5-a]pyridin-2-yl)-6,7-dihydro-1H-imidazo[4,5-c]pyridin-5(4H)-yl)methanone], the AC50 lay in the range of 0.5 to 1 µM. For `O=C(c1nnc(C2CC2)o1)N1CCc2[nH]cnc2[C@@H]1c1cc2cc(F)ccn2n1` [Example 1131, (R)-(5-cyclopropyl-1,3,4-oxadiazol-2-yl)(4-(5-fluoropyrazolo[1,5-a]pyridin-2-yl)-6,7-dihydro-1H-imidazo[4,5-c]pyridin-5(4H)-yl)methanone], the AC50 fell in the range of 1 to 5 µM. Take `O=C(c1ccnn1C(F)F)N1CCc2[nH]cnc2[C@H]1c1cc2cc(C(F)(F)F)ccn2n1` [Example 1132, (S)-(1-(difluoromethyl)-1H-pyrazol-5-yl)(4-(5-(trifluoromethyl)pyrazolo[1,5-a]pyridin-2-yl)-6,7-dihydro-1H-imidazo[4,5-c]pyridin-5(4H)-yl)methanone]: the AC50 was < 0.5 µM. The value for `O=C(c1nnc(-c2cnn(C(F)F)c2)o1)N1CCc2[nH]cnc2[C@H]1c1cc2c(Cl)cccn2n1` [Example 1134, (S)-(4-(4-chloropyrazolo[1,5-a]pyridin-2-yl)-6,7-dihydro-1H-imidazo[4,5-c]pyridin-5(4H)-yl)(5-(1-(difluoromethyl)-1H-pyrazol-4-yl)-1,3,4-oxadiazol-2-yl)methanone] was < 0.5 µM; that for `O=C(c1nnc(-c2cnn(C(F)F)c2)o1)N1CCc2[nH]cnc2[C@@H]1c1cc2c(Cl)cccn2n1` [Example 1135, (R)-(4-(4-chloropyrazolo[1,5-a]pyridin-2-yl)-6,7-dihydro-1H-imidazo[4,5-c]pyridin-5(4H)-yl)(5-(1-(difluoromethyl)-1H-pyrazol-4-yl)-1,3,4-oxadiazol-2-yl)methanone] was 1 to 5 µM. In the case of `O=C(c1ccnn1C(F)F)N1CCc2[nH]cnc2[C@H]1c1cc2ccc(C(F)(F)F)cn2n1` [Example 1138, (S)-(1-(difluoromethyl)-1H-pyrazol-5-yl)(4-(6-(trifluoromethyl)pyrazolo[1,5-a]pyridin-2-yl)-6,7-dihydro-1H-imidazo[4,5-c]pyridin-5(4H)-yl)methanone], the half-maximal activity concentration (AC50) is < 0.5 µM. Take `O=C(c1nnc(C2CC2)o1)N1CCc2[nH]cnc2[C@H]1c1cc2cccc(C(F)(F)F)n2n1` [Example 1140, (S)-(5-cyclopropyl-1,3,4-oxadiazol-2-yl)(4-(7-(trifluoromethyl)pyrazolo[1,5-a]pyridin-2-yl)-6,7-dihydro-1H-imidazo[4,5-c]pyridin-5(4H)-yl)methanone]: the AC50 lay within 0.5 to 1 µM.

Consider `Cn1nc(Cl)nc1C(=O)N1CCc2[nH]cnc2[C@H]1c1cc2cccc(Cl)n2n1` [Example 1142, (S)-(3-chloro-1-methyl-1H-1,2,4-triazol-5-yl)(4-(7-chloropyrazolo[1,5-a]pyridin-2-yl)-6,7-dihydro-1H-imidazo[4,5-c]pyridin-5(4H)-yl)methanone], for which the AC50 was < 0.5 µM. For `Cn1ncnc1C(=O)N1CCc2[nH]cnc2[C@H]1c1cc2cccc(C(F)(F)F)n2n1` [Example 1144, (S)-(1-methyl-1H-1,2,4-triazol-5-yl)(4-(7-(trifluoromethyl)pyrazolo[1,5-a]pyridin-2-yl)-6,7-dihydro-1H-imidazo[4,5-c]pyridin-5(4H)-yl)methanone], the AC50 lay within 0.5 to 1 µM.

Turning to `Cc1cccc2cc([C@@H]3c4nc[nH]c4CCN3C(=O)c3ocnc3C(F)(F)F)nn12` [Example 1146, (S)-(4-(7-methylpyrazolo[1,5-a]pyridin-2-yl)-6,7-dihydro-1H-imidazo[4,5-c]pyridin-5(4H)-yl)(4-(trifluoromethyl)oxazol-5-yl)methanone], the AC50 is < 0.5 µM. Consider `Cc1ncoc1C(=O)N1CCc2[nH]cnc2[C@H]1c1cc2cccc(C)n2n1` [Example 1148, (S)-(4-methyloxazol-5-yl)(4-(7-methylpyrazolo[1,5-a]pyridin-2-yl)-6,7-dihydro-1H-imidazo[4,5-c]pyridin-5(4H)-yl)methanone], for which the concentration at half-maximal activity (AC50) is 0.5 to 1 µM. As to `Cc1ncoc1C(=O)N1CCc2[nH]cnc2[C@@H]1c1cc2cccc(C)n2n1` [Example 1149, (R)-(4-methyloxazol-5-yl)(4-(7-methylpyrazolo[1,5-a]pyridin-2-yl)-6,7-dihydro-1H-imidazo[4,5-c]pyridin-5(4H)-yl)methanone], the AC50 fell in the range of 1 to 5 µM. On to `Cc1cccc2cc([C@@H]3c4nc[nH]c4CCN3C(=O)c3oc(C(C)(C)O)nc3C(F)(F)F)nn12` [Example 1150, (S)-(2-(2-hydroxypropan-2-yl)-4-(trifluoromethyl)oxazol-5-yl)(4-(7-methylpyrazolo[1,5-a]pyridin-2-yl)-6,7-dihydro-1H-imidazo[4,5-c]pyridin-5(4H)-yl)methanone], for which the AC50 is < 0.5 µM.

In the case of `Cc1cccc2cc([C@@H]3c4nc[nH]c4CCN3C(=O)c3oc([C@H](C)O)nc3C(F)F)nn12` [Example 1152, (4-(difluoromethyl)-2-((S)-1-hydroxyethyl)oxazol-5-yl)((S)-4-(7-methylpyrazolo[1,5-a]pyridin-2-yl)-6,7-dihydro-1H-imidazo[4,5-c]pyridin-5(4H)-yl)methanone], the AC50 was < 0.5 µM. As for `O=C(c1ocnc1C(F)F)N1CCc2[nH]cnc2[C@H]1c1cc2cccc(C(F)(F)F)n2n1` [Example 1154, (S)-(4-(difluoromethyl)oxazol-5-yl)(4-(7-(trifluoromethyl)pyrazolo[1,5-a]pyridin-2-yl)-6,7-dihydro-1H-imidazo[4,5-c]pyridin-5(4H)-yl)methanone], the AC50 was < 0.5 µM. For the compound `CC(C)(O)c1nc(C(F)F)c(C(=O)N2CCc3[nH]cnc3[C@H]2c2cc3cccc(C(F)(F)F)n3n2)o1` [Example 1156, (S)-(4-(difluoromethyl)-2-(2-hydroxypropan-2-yl)oxazol-5-yl)(4-(7-(trifluoromethyl)pyrazolo[1,5-a]pyridin-2-yl)-6,7-dihydro-1H-imidazo[4,5-c]pyridin-5(4H)-yl)methanone], the AC50 was < 0.5 µM. For `O=C(c1cnco1)N1CCc2[nH]cnc2[C@H]1c1cc2c(C(F)(F)F)cccn2n1` [Example 1158, (S)-oxazol-5-yl(4-(4-(trifluoromethyl)pyrazolo[1,5-a]pyridin-2-yl)-6,7-dihydro-1H-imidazo[4,5-c]pyridin-5(4H)-yl)methanone], the half-maximal activity concentration (AC50) fell in the range of 0.5 to 1 µM.

Turning to `CC(C)(F)c1nnc(C(=O)N2CCc3[nH]cnc3[C@@H]2c2cc3cccc(C(F)(F)F)n3n2)o1` [Example 1160, (R)-(5-(2-fluoropropan-2-yl)-1,3,4-oxadiazol-2-yl)(4-(7-(trifluoromethyl)pyrazolo[1,5-a]pyridin-2-yl)-6,7-dihydro-1H-imidazo[4,5-c]pyridin-5(4H)-yl)methanone], the AC50 is 1 to 5 µM. Under `CC(C)(F)c1nnc(C(=O)N2CCc3[nH]cnc3[C@H]2c2cc3cccc(C(F)(F)F)n3n2)o1` [Example 1161, (S)-(5-(2-fluoropropan-2-yl)-1,3,4-oxadiazol-2-yl)(4-(7-(trifluoromethyl)pyrazolo[1,5-a]pyridin-2-yl)-6,7-dihydro-1H-imidazo[4,5-c]pyridin-5(4H)-yl)methanone] stands 0.5 to 1 µM. `Cn1nc(Cl)nc1C(=O)N1CCc2[nH]cnc2[C@H]1c1cc2cccc(C(F)(F)F)n2n1` [Example 1162, (S)-(3-chloro-1-methyl-1H-1,2,4-triazol-5-yl)(4-(7-(trifluoromethyl)pyrazolo[1,5-a]pyridin-2-yl)-6,7-dihydro-1H-imidazo[4,5-c]pyridin-5(4H)-yl)methanone]: the AC50 was < 0.5 µM. For the compound `Cc1cccc2cc([C@H]3c4nc[nH]c4CCN3C(=O)c3oc([C@@H](C)O)nc3C(F)F)nn12` [Example 1165, (4-(difluoromethyl)-2-((R)-1-hydroxyethyl)oxazol-5-yl)((R)-4-(7-methylpyrazolo[1,5-a]pyridin-2-yl)-6,7-dihydro-1H-imidazo[4,5-c]pyridin-5(4H)-yl)methanone], the AC50 lay in the range of 1 to 5 µM. For the compound `COc1cccn2nc([C@@H]3c4nc[nH]c4CCN3C(=O)c3cnco3)cc12` [Example 1166, (S)-(4-(4-methoxypyrazolo[1,5-a]pyridin-2-yl)-6,7-dihydro-1H-imidazo[4,5-c]pyridin-5(4H)-yl)(oxazol-5-yl)methanone], the AC50 is 0.5 to 1 µM. In the case of `COc1cccn2nc([C@@H]3c4nc[nH]c4CCN3C(=O)c3nnc(C4CC4)o3)cc12` [Example 1168, (S)-(5-cyclopropyl-1,3,4-oxadiazol-2-yl)(4-(4-methoxypyrazolo[1,5-a]pyridin-2-yl)-6,7-dihydro-1H-imidazo[4,5-c]pyridin-5(4H)-yl)methanone], the AC50 lay within 0.5 to 1 µM.

For `COc1cccn2nc([C@H]3c4nc[nH]c4CCN3C(=O)c3nnc(C4CC4)o3)cc12` [Example 1169, (R)-(5-cyclopropyl-1,3,4-oxadiazol-2-yl)(4-(4-methoxypyrazolo[1,5-a]pyridin-2-yl)6,7-dihydro-1H-imidazo[4,5-c]pyridin-5(4H)-yl)methanone], the AC50 was > 5 µM.

The AC50 is the concentration at which the activity in the assay is half-maximal.
